Experimental data taken from US10082499B2, “Short term isotope pulse labeling method for analysing metabolic products in biological samples” (Max-Delbrueck-Centrum fuer Molekulare Medizin, priority 2014, dated 2018).
“Also recorded” adds a separate entry of the source.

Tested on: T98G cells
Assay: pSIRM analysis of glycolytic inhibition (13C-glucose pulse labeling, GC-MS)
Assay type: cell-based
Method: GC-MS measurement: Metabolite analysis was performed on a gas chromatography coupled to time of flight mass spectrometer (LECO-Pegasus III— TOF-MS-System, LECO), supplemented with an auto-sampler (MultiPurpose Sampler 2 XL, Gerstel). Samples and quantification standards were injected in split mode (split 1:5, injection volume: 1 ul,) in a temperature-controlled injector (CAS4, Gerstel) with a baffled glass-liner (Gerstel). The following temperature program was applied during sample injection: Initial temperature of 80° C. for 30 s followed by a ramp with 12° C./min to 120° C. and a second ramp with 7° C./min to 300° C. and final hold for 2 min. Gas chromatographic separation was performed on an Agilent 6890N (Agilent), equipped with a Varian VF-5 ms-column of 30 m length, 250 μm inner diameter and 0.25 μm film thickness (Varian). Helium was used as carrier gas with a flow rate of 1.2 mL/min. Gas chromatography was performed with the following temperature gradient: 2 min heating at 70° C., first temperature gradient with 5° C./min up to 120° C. and hold for 30 s, subsequently a second temperature increase of 7° C./min up to 350° C. with a hold time of 2 min. Spectra were recorded in a mass range of 60 to 600 u with 20 spectra/s at a detector voltage of 1750 V.
Data analysis: The vendor software ChromaTOF Version 4.42 (LECO Corp. St. Joseph—USA) was used for metabolite evaluation with the following parameter: baseline offset of 1, peak width of 4 s, signal/noise of 20, peak smoothing of 11 data-points. Retention indices were calculated based on retention index standards as described (Ref). GoIm Metabolome Database (GMD) provided peak identification. The quantification routine of ChromaTOF was used for external calibration based on the measured quantification standards. Exported csv-files included: Name, quant mass, retention index, 1st dimension retention time, 2nd dimension retention time, area, concentration, match, reverse, quant signal/noise, type, concentration units and the peak true spectrum in absolute values. For further data analysis the tool MetMax was developed in cooperation with the MPIMP in Potsdam-Golm (http://gmd.mpimp-golm.mpg.de/apps/metmax). MetMax provided of extraction of peak areas and quantities (retention analysis mode), and intensities of pre-defined mass ranges (isotope concentrator mode) from the exported csv-files. The in-house developed pSIRM-wizard enabled the determination of ^13C-label incorporation based on the exported data following the descriptions and equations stated in the paper.
Cell harvest: Growth media was removed from cells and cells were incubated in 5 ml of prewarmed (37° C.) wash-buffer (137 mM NaCl, 3 mM KCl, 5 mM HEPES, adjusted to a pH of 7.2-7.4) enriched with the same amount of glucose and glutamine as in the growth media (2.5 g/L and 4 mM respectively). For the metabolic labeling the wash-buffer is used as labeling buffer with glucose or glutamine replaced by their ^13C-counterpart. Cells were incubated for 3 minutes at 37° C. before harvest. The buffer was removed followed by an immediate addition of 5 ml of prechilled (−20 to −40° C.) 50% MeOH (with 2-4 μg/mL Cinnamic acid as internal standard) to the plate. Cells were scratched of the plates using cell-scraper and transferred to a falcon, which contain 1 ml of chloroform. Cell suspension was frozen in liquid nitrogen and stored at −80° C. until extraction. To extract cell metabolism the suspension was shaken for 30 minutes at 4° C., followed by a centrifugation for 10 minutes to perform phase separation. 4.5 ml of the upper, polar phase were transferred into a new falcon and dried under vacuum. On the next day the pellet was resuspended in 530 μl 20% Methanol (4° C.), shaken at 4° C. until completely solved, transferred into two eppies (2×250 μl) and dried under vacuum. The dried samples were stored at −20° C. and derivatized as described above. […]

[1] = 2 mM inhibitor 12 min + 3 min 13C-glucose
[2] = 2 mM inhibitor 12 min, then 3 min 13C-glucose in presence of inhibitor

Row | SMILES | 13C-glucose incorporation (carbon flow) into citrate [1] | inhibitory effect on glycolysis [1] | isotope incorporation in pyruvate and lactate / pyruvate or lactate levels [1] | reduction of the 13C-fraction of hexose-phosphates [2] [%] | inhibitory effect on glycolysis (10 mM inhibitor) | isotope incorporation rates in G6P (10 mM inhibitor) | reduction of glycolytic flow (10 mM inhibitor) | carbon flow downstream of GAPDH (2 mM inhibitor) | concentration of 3PGA [1] | labelled fraction of G6P and F6P [1] | total concentration of G6P and F6P (hexose phosphates) [1] | reduction of carbon-flow into pyruvate, lactate and citrate [2]
1 | O=CC[C@@H](O)[C@H](O)[C@H](O)CO [2DG, 2-deoxyglucose] | extended; also recorded: increasing | negligible | affected only marginally; also recorded: did not affect | 20 | stronger inhibition | not affected | up to 80% | – | – | – | – | –
2 | O=C(O)C(=O)CBr [BrPyr] | – | nearly completely inhibited | – | – | – | – | – | strong decline | diminished below the detection limit | reduced | increased | around 100%
